Experimental data reported in the supplement of paper PMC10307832.

What was measured:
Assay in all cases: relative viability (nuclei count vs DMSO), 5 days (fraction); higher = more cells survive
RAF265 + Trametinib = compound: Cn1c(Nc2ccc(C(F)(F)F)cc2)nc2cc(Oc3ccnc(-c4ncc(C(F)(F)F)[nH]4)c3)ccc21 [RAF265] + CC(=O)Nc1cccc(-n2c(=O)n(C3CC3)c(=O)c3c(Nc4ccc(I)cc4F)n(C)c(=O)c(C)c32)c1 [Trametinib] (partner 0.02 µM)
Outline: (§1)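 Nuclei were stained with Hoechst during a one-step fixation (final 0.05% Triton X-100, 1% formaldehyde, 1 ug/ml Hoechst) carried out 5 days after dosing, then counted on 4× images. The cells, lung cancer lines in 1536-well plates, had been dosed by pin tool the day after seeding with one drug alone or a fixed anchor-drug dose plus five library-drug doses (not always all listed) in √10 steps. Relative viability is the nuclei count in treated wells divided by that in vehicle wells, and each value is the median of duplicate plates.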

IPA-3 + Olaparib = compound: C1=CC=C2C(=C1)C=CC(=C2SSC3=C(C=CC4=CC=CC=C43)O)O [IPA-3] + O=C(c1cc(Cc2n[nH]c(=O)c3ccccc23)ccc1F)N1CCN(C(=O)C2CC2)CC1 [Olaparib] (partner 8 µM)
Outline: as §1

Doramapimod + Pictilisib = compound: Cc1ccc(-n2nc(C(C)(C)C)cc2NC(=O)Nc2ccc(OCCN3CCOCC3)c3ccccc23)cc1 [Doramapimod] + CS(=O)(=O)N1CCN(Cc2cc3nc(-c4cccc5[nH]ncc45)nc(N4CCOCC4)c3s2)CC1 [Pictilisib] (partner 1 µM)
Outline: as §1

Doramapimod + Pemetrexed = compound: Cc1ccc(-n2nc(C(C)(C)C)cc2NC(=O)Nc2ccc(OCCN3CCOCC3)c3ccccc23)cc1 [Doramapimod] + Nc1nc2[nH]cc(CCc3ccc(C(=O)N[C@@H](CCC(=O)O)C(=O)O)cc3)c2c(=O)[nH]1 [Pemetrexed] (partner 0.2 µM)
Outline: as §1

Row | Cell Line | relative viability (RAF265 + Trametinib; first compound 0.01 µM) | relative viability (RAF265 + Trametinib; first compound 0.03162 µM) | relative viability (RAF265 + Trametinib; first compound 0.1 µM) | relative viability (RAF265 + Trametinib; first compound 0.3162 µM) | relative viability (RAF265 + Trametinib; first compound 1 µM) | relative viability (IPA-3 + Olaparib; first compound 0.2 µM) | relative viability (IPA-3 + Olaparib; first compound 0.6325 µM) | relative viability (IPA-3 + Olaparib; first compound 2 µM) | relative viability (IPA-3 + Olaparib; first compound 6.325 µM) | relative viability (IPA-3 + Olaparib; first compound 20 µM) | relative viability (Doramapimod + Pictilisib; first compound 0.02 µM) | relative viability (Doramapimod + Pictilisib; first compound 0.06325 µM) | relative viability (Doramapimod + Pictilisib; first compound 0.2 µM) | relative viability (Doramapimod + Pictilisib; first compound 0.6325 µM) | relative viability (Doramapimod + Pictilisib; first compound 2 µM) | relative viability (Doramapimod + Pemetrexed; first compound 0.02 µM) | relative viability (Doramapimod + Pemetrexed; first compound 0.06325 µM) | relative viability (Doramapimod + Pemetrexed; first compound 0.2 µM) | relative viability (Doramapimod + Pemetrexed; first compound 0.6325 µM) | relative viability (Doramapimod + Pemetrexed; first compound 2 µM)
1 | NCI-H2009 | 0.29 | 0.303 | 0.189 | 0.188 | 0.165 | 0.662 | 0.68 | 0.708 | 0.635 | 0.622 | 0.812 | 0.656 | 0.826 | 0.395 | 0.823 | 1.03 | 1.04 | 1.06 | 1.01 | 1
2 | NCI-H1651 | 0.797 | 0.808 | 0.795 | 0.796 | 0.734 | 0.198 | 0.187 | 0.189 | 0.179 | 0.178 | 0.605 | 0.478 | 0.551 | 0.695 | 0.519 | 0.576 | 0.731 | 0.594 | 0.658 | 0.595
3 | HARA | 0.771 | 0.484 | 0.673 | 0.353 | 0.308 | 0.8 | 0.802 | 0.971 | 0.694 | 0.676 | 0.281 | 0.347 | 0.273 | 0.503 | 0.302 | 0.246 | 0.234 | 0.266 | 0.314 | 0.225
4 | NCI-H1944 | 0.454 | 0.453 | 0.386 | 0.324 | 0.246 | 0.452 | 0.409 | 0.405 | 0.435 | 0.395 | 0.319 | 0.378 | 0.339 | 0.372 | 0.322 | 0.573 | 0.623 | 0.503 | 0.595 | 0.572
5 | NCI-H2347 | 0.266 | 0.292 | 0.283 | 0.22 | 0.227 | 0.568 | 0.486 | 0.565 | 0.592 | 0.612 | 0.637 | 0.547 | 0.497 | 0.829 | 0.347 | 0.42 | 0.443 | 0.444 | 0.436 | 0.376
6 | 201T | 0.781 | 0.696 | 0.717 | 0.748 | 0.716 | 0.833 | 0.845 | 0.833 | 0.83 | 0.885 | 0.696 | 0.662 | 0.668 | 0.863 | 0.609 | 0.308 | 0.333 | 0.347 | 0.331 | 0.318
7 | PC-14 | 0.814 | 0.711 | 0.716 | – | 0.447 | 0.286 | 0.29 | 0.335 | 0.222 | 0.134 | 0.636 | 0.644 | 0.645 | 0.655 | 0.616 | 0.129 | 0.128 | 0.134 | 0.148 | 0.109
8 | NCI-H1650 | 0.786 | 0.708 | 0.568 | 0.419 | 0.43 | 0.947 | 0.74 | 0.877 | 0.715 | 0.746 | 0.537 | 0.629 | 0.724 | 0.329 | 0.474 | 0.345 | 0.357 | 0.447 | 0.387 | 0.375
9 | NCI-H1792 | 0.485 | 0.408 | 0.361 | 0.218 | 0.0679 | 0.506 | 0.48 | – | 0.395 | 0.225 | 0.271 | 0.234 | 0.222 | 0.254 | 0.211 | 0.869 | 0.761 | 0.707 | 0.743 | 0.651
10 | COR-L23 | 0.684 | 0.444 | 0.331 | 0.247 | 0.207 | 0.314 | 0.34 | 0.406 | 0.281 | 0.301 | 0.812 | 0.791 | 0.796 | 0.797 | 0.751 | 0.222 | 0.203 | 0.212 | 0.19 | 0.2
11 | ChaGo-K-1 | 0.903 | 0.965 | 0.859 | 0.776 | 0.632 | 0.458 | 0.421 | 0.413 | 0.441 | 0.392 | 0.805 | 0.888 | 0.96 | – | 0.688 | 0.263 | 0.254 | 0.255 | 0.26 | 0.243
12 | HOP-62 | 0.468 | 0.404 | 0.406 | 0.379 | 0.218 | 0.848 | 0.401 | 0.47 | 0.392 | 0.274 | 0.761 | 0.714 | 0.742 | 0.463 | 0.438 | 0.242 | 0.306 | 0.295 | 0.326 | 0.309
13 | NCI-H1915 | 0.327 | 0.275 | 0.23 | 0.151 | 0.1 | 0.28 | 0.237 | 0.269 | 0.246 | 0.255 | 0.945 | 0.932 | 0.989 | 0.87 | 0.785 | 0.452 | 0.464 | 0.498 | 0.699 | 0.419
14 | BEN | 1.12 | 1.25 | 1.05 | 1.17 | 0.908 | 1.07 | 1.15 | 1.08 | 1.06 | 1.23 | 0.578 | 0.501 | 0.524 | 0.559 | 0.531 | 0.74 | 0.849 | 0.795 | 0.673 | 0.795
15 | NCI-H1437 | 0.544 | 0.552 | 0.505 | 0.716 | 0.493 | 0.629 | 0.597 | 0.639 | 0.608 | 0.565 | 0.453 | 0.411 | 0.37 | 0.596 | 0.415 | 0.291 | 0.287 | 0.323 | 0.329 | 0.302
16 | EMC-BAC-2 | 0.977 | 0.857 | 0.85 | 0.62 | 0.313 | 0.5 | 0.468 | 0.447 | 0.459 | 0.412 | 0.542 | 0.468 | 0.51 | 0.741 | 0.513 | 0.455 | 0.426 | 0.418 | 0.46 | 0.369
